Measured values from patent US20190133128A1, “Fungicidal pyridazinones” (FMC Corporation, priority 2017, published 2019).

How the values were obtained:
Format in all cases: in vivo
Plasmopara viticola = experiment: Test B: preventive spray on grape seedlings, grape downy mildew, disease rating
Text: General protocol for preparing test solutions for Tests AG: the test compounds were first dissolved in acetone in an amount equal to 3% of the final volume and then suspended at the desired concentration (in ppm) in acetone and purified water (50/50 mix by volume) containing the surfactant PEG400 (polyhydric alcohol esters). The resulting test suspensions were then used in Tests AG. Compounds were sprayed at a concentration of 250 ppm or other indicated rate to the point of run-off on the test plants. The test solution was sprayed to the point of run-off on grape seedlings. […] A dash (-) indicates no test results.

Botrytis cinerea = experiment: Test C: preventive spray on tomato seedlings, gray mold, visual disease rating; conditions: for pest or weed control at 250 ppm: Botrytis cinerea
Summary of the method: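 Tomato seedlings received a run-off spray, typically 250 ppm (or stated rate), ahead of gray mold inoculation and visual scoring. Test suspensions: acetone stock (3% of volume) diluted into 1:1 acetone/water containing PEG400.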

Phytophthora infestans = experiment: whole plant or invertebrate; conditions: for pest or weed control at 250 ppm: Phytophthora infestans, in Solanum lycopersicum, read-out: Test D disease control rating; for Test D disease control rating: tomato seedlings
Zymoseptoria tritici = experiment: Test E: preventive spray on wheat seedlings, wheat leaf blotch, visual disease rating; conditions: for pest or weed control at 250 ppm: Zymoseptoria tritici
Summary of the method: (§1)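 Preventive foliar spray of wheat seedlings to run-off, at 250 ppm or other indicated rate. Compounds dissolved in acetone (3% of final volume), suspended in 50/50 acetone–water with PEG400 surfactant. Disease rated visually.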

[1] = tested on: Puccinia recondita f. sp. tritici; experiment: Test F: preventive spray on wheat seedlings, wheat leaf rust, visual disease rating; conditions: for pest or weed control at 250 ppm: Puccinia recondita
Summary of the method: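 Preventive test: wheat seedlings were sprayed to run-off with compound suspended in acetone/water 50/50 plus PEG400 (250 ppm or other indicated rate). One day later they received Puccinia recondita f. sp. tritici spores, and disease was scored visually.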

[2] = tested on: Erysiphe graminis f. sp. tritici; experiment: Test G: preventive spray on wheat seedlings, wheat powdery mildew, visual disease rating; conditions: for pest or weed control at 250 ppm: Blumeria graminis, 192 h
Summary of the method: as §1

Phakopsora pachyrhizi = experiment: Test A: preventive spray on soybean seedlings, Asian soybean rust, visual disease rating; conditions: 250 ppm, 100 = 100% disease control, 0 = no control
[3] = 250 ppm, 100 = 100% disease control, 0 = no control

Molecule | Test B disease control rating (Plasmopara viticola; [3]) [%] | Test C disease control rating (Botrytis cinerea; [3]) [%] | Test D disease control rating (Phytophthora infestans; [3]) [%] | Test E disease control rating (Zymoseptoria tritici; [3]) [%] | Test F disease control rating [1, 3] [%] | Test G disease control rating [2, 3] [%] | other results
Cn1ncc(O)c(C(=O)Nc2ccc(C(F)(F)F)cc2)c1=O [Compound 2, 2,3-Dihydro-5-hydroxy-2-methyl-3-oxo-N-[4-(trifluoromethyl)phenyl]-4-pyridazinecarboxamide] | 97 | – | – | – | – | – | pest or weed control at 250 ppm (Botrytis cinerea; [3]): 0%; pest or weed control at 250 ppm (Phytophthora infestans): 99%; pest or weed control at 250 ppm (Zymoseptoria tritici; [3]): 97%; pest or weed control at 250 ppm [1, 3]: 100%; pest or weed control at 250 ppm [2, 3]: 97%
Cn1ncc(O)c(C(=O)Nc2ccc(Cl)nc2)c1=O [Compound 6] | 85 | 99 | 88 | 57 | 99 | 0 | –
Cc1nnc(NC(=O)c2c(O)cnn(C)c2=O)s1 [Compound 13] | 65 | 0 | 0 | 0 | 0 | 0 | –
Cn1ncc(O)c(C(=O)Nc2ccc(OC(F)(F)F)cc2)c1=O [Compound 21, 2,3-Dihydro-5-hydroxy-2-methyl-3-oxo-N-[4-(trifluoromethoxy)phenyl]-4-pyridazinecarboxamide] | 93 | – | – | – | – | – | pest or weed control at 250 ppm (Botrytis cinerea; [3]): 0%; pest or weed control at 250 ppm (Phytophthora infestans): 97%; pest or weed control at 250 ppm (Zymoseptoria tritici; [3]): 98%; pest or weed control at 250 ppm [1, 3]: 99%; pest or weed control at 250 ppm [2, 3]: 98%
Cn1nc(-c2ccccc2)c(O)c(C(=O)Nc2ccccc2C(F)(F)F)c1=O [Compound 26] | 49 | 0 | 58 | 0 | 68 | 84 | –
Cn1ncc(O)c(C(=O)Nc2ccc(Cl)cc2Cl)c1=O [Compound 37] | 86 | 0 | 95 | 51 | 94 | 76 | –
Cn1ncc(O)c(C(=O)Nc2ncc(Cl)cn2)c1=O [Compound 38] | 20 | 0 | 0 | 0 | 68 | 0 | –
Cn1ncc(O)c(C(=O)NC2CCCCC2)c1=O [Compound 39] | 70 | 0 | 0 | 0 | 0 | 69 | –
Cn1ncc(O)c(C(=O)Nc2ncccc2Cl)c1=O [Compound 45] | 88 | 99 | 94 | 0 | 98 | 0 | –
CC(=O)Oc1cnn(C)c(=O)c1C(=O)N(C(C)=O)c1ccc(OC(F)(F)F)cc1 [Compound 84] | – | – | – | – | – | – | Test B disease control rating (Plasmopara viticola; 280 ppm): 99%; Test C disease control rating (Botrytis cinerea; 280 ppm): 0%; Test D disease control rating (Phytophthora infestans; 280 ppm): 100%; Test E disease control rating (Zymoseptoria tritici; 280 ppm): 100%; Test F disease control rating ([1]; 280 ppm): 100%; Test G disease control rating ([2]; 280 ppm): 99%
COC(=O)N(C(=O)c1c(OC(C)=O)cnn(C)c1=O)c1ccc(OC(F)(F)F)cc1 [Compound 88] | – | – | – | – | – | – | Test B disease control rating (Plasmopara viticola; 50 ppm): 91%; Test C disease control rating (Botrytis cinerea; 50 ppm): 0%; Test D disease control rating (Phytophthora infestans; 50 ppm): 57%; Test E disease control rating (Zymoseptoria tritici; 50 ppm): 32%; Test F disease control rating ([1]; 50 ppm): 83%; Test G disease control rating ([2]; 50 ppm): 89%
Cn1ncc2oc(=O)n(-c3ccc(OC(F)(F)F)cc3)c(=O)c2c1=O [Compound 89, 6-Methyl-3-[4-(trifluoromethoxy)phenyl]-2H-pyridazino[4,5-e]-1,3-oxazine-2,4,5(3H,6H)-trione] | 99 | – | – | – | – | – | pest or weed control at 250 ppm (Botrytis cinerea; [3]): 0%; pest or weed control at 250 ppm (Phytophthora infestans): 67%; pest or weed control at 250 ppm (Zymoseptoria tritici; [3]): 97%; pest or weed control at 250 ppm [1, 3]: 99%; pest or weed control at 250 ppm [2, 3]: 61%
COc1ccc(NC(=O)c2c(O)cnn(C)c2=O)cc1 [Compound 92] | 92 | 99 | 68 | 59 | 89 | 35 | –
Cc1ccc(NC(=O)c2c(O)cnn(C)c2=O)cc1 [Compound 93] | 94 | 15 | 93 | 65 | 91 | 87 | –
Cc1cc(C(F)(F)F)ccc1NC(=O)c1c(O)cnn(C)c1=O [Compound 117] | 100 | 0 | 97 | – | 99 | 90 | Test A disease control rating (Phakopsora pachyrhizi): 0%
O=C(Nc1ccc(OC(F)(F)F)cc1)c1c(O)cnn(CC(F)(F)F)c1=O [Compound 119] | 100 | 0 | 87 | 73 | 97 | 99 | –
O=C(Nc1ccc(OC(F)(F)F)cc1)c1c(O)cnn(C2CC2)c1=O [Compound 120] | 98 | 0 | 97 | – | 96 | 89 | Test A disease control rating (Phakopsora pachyrhizi): 13%
CN(C)c1cnn(C)c(=O)c1C(=O)Nc1ccc(C(F)(F)F)cc1F [Compound 128] | 100 | 0 | 67 | – | 68 | 0 | Test A disease control rating (Phakopsora pachyrhizi): 79%
Cn1ncc(O)c(C(=O)Nc2ccc(S(=O)(=O)C(F)(F)F)cc2)c1=O [Compound 129] | 98 | 0 | 82 | – | 89 | 81 | Test A disease control rating (Phakopsora pachyrhizi): 0%
CC(C)n1ncc(O)c(C(=O)Nc2ccc(OC(F)(F)F)cc2)c1=O [Compound 131] | 98 | 0 | 99 | 51 | 91 | 100 | –
Cn1ncc(O)c(C(=O)Nc2c(Cl)cc(OC(F)(F)F)cc2Cl)c1=O [Compound 133] | 100 | 0 | 89 | 100 | 86 | 100 | –
O=C(Nc1ccc(OC(F)(F)F)cc1)c1c(O)cn[nH]c1=O [Compound 136] | 100 | 0 | 91 | – | 93 | 0 | Test A disease control rating (Phakopsora pachyrhizi): 0%
Cn1ncc(O)c(C(=O)Nc2ccc(C(F)(F)C(F)(F)F)cc2)c1=O [Compound 138] | 100 | 0 | 99 | 99 | 100 | 99 | –
Cn1ncc(O)c(C(=O)Nc2c(Cl)cccc2Cl)c1=O [Compound 141] | 96 | 0 | – | – | 68 | 64 | Test A disease control rating (Phakopsora pachyrhizi): 50%
Cn1ncc(O)c(C(=O)Nc2ccc(F)cc2F)c1=O [Compound 144] | 100 | 0 | 99 | – | 99 | 87 | Test A disease control rating (Phakopsora pachyrhizi): 0%
N-(4-Bromophenyl)-2,3-dihydro-5-hydroxy-2-methyl-3-oxo-4-pyridazinecarboxamide [Compound 75] | 86 | 0 | 93 | 83 | 98 | 13 | –
